Measured values published in ChEMBL document CHEMBL4052628, “Synthesis and cytotoxicity of a novel series of saframycin-ecteinascidin analogs containing tetrahydro-β-carboline moieties” (Eur J Med Chem, 2017).

How the values were obtained:
Format in all cases: functional, cell-based
HCT-116 = assay: Cytotoxicity against human HCT116 cells assessed as reduction in cell viability after 72 hrs by MTT assay; details: HCT-116, 72 h
MCF7 = assay: Cytotoxicity against human MCF7 cells assessed as reduction in cell viability after 72 hrs by MTT assay; details: MCF7, 72 h
HepG2 = assay: Cytotoxicity against human HepG2 cells assessed as reduction in cell viability after 72 hrs by MTT assay; details: HepG2, 72 h
BGC-823 = assay: Cytotoxicity against human BGC823 cells assessed as reduction in cell viability after 72 hrs by MTT assay; details: BGC-823, 72 h
A2780 = assay: Cytotoxicity against human A2780 cells assessed as reduction in cell viability after 72 hrs by MTT assay; details: A2780, 72 h
HT-29 = assay: Cytotoxicity against human HT-29 cells assessed as reduction in cell viability after 72 hrs by MTT assay; details: HT-29, 72 h

Structure (SMILES) | IC50 (HCT-116) | IC50 (MCF7) | IC50 (HepG2) | IC50 (BGC-823) | IC50 (A2780) | IC50 (HT-29)
CN1[C@@H]2c3[nH]c4ccccc4c3C[C@H]1[C@H](C#N)N1[C@@H](CNC(=O)c3ccco3)c3[nH]c4ccccc4c3C[C@@H]21 | 170 nM | 160 nM | 250 nM | 300 nM | 120 nM | 100 nM
CN1[C@@H]2c3[nH]c4ccccc4c3C[C@H]1[C@H](C#N)N1[C@@H](CNC(=O)/C=C/c3ccccc3)c3[nH]c4ccccc4c3C[C@@H]21 | 1960 nM | 7190 nM | 470 nM | 4300 nM | 770 nM | 1400 nM
CN1[C@@H]2c3[nH]c4ccccc4c3C[C@H]1[C@H](C#N)N1[C@@H](CNC(=O)c3cc4ccccc4s3)c3[nH]c4ccccc4c3C[C@@H]21 | 500 nM | 3180 nM | 300 nM | 240 nM | 20 nM | 640 nM
COc1ccc(/C=C/C(=O)NC[C@H]2c3[nH]c4ccccc4c3C[C@H]3[C@H]4c5[nH]c6ccccc6c5C[C@@H]([C@H](C#N)N23)N4C)cc1 | 5060 nM | 4220 nM | 2140 nM | 5450 nM | 860 nM | 3060 nM
CN1[C@@H]2c3[nH]c4ccccc4c3C[C@H]1[C@H](C#N)N1[C@@H](CN3C(=O)c4ccccc4C3=O)c3[nH]c4ccccc4c3C[C@@H]21 | 40 nM | 610 nM | 20 nM | 410 nM | 80 nM | 80 nM
CN1[C@@H]2c3[nH]c4ccccc4c3C[C@H]1[C@H](C#N)N1[C@@H](CNC(=O)c3ccc(Cl)cc3)c3[nH]c4ccccc4c3C[C@@H]21 | 630 nM | 610 nM | 350 nM | 110 nM | 230 nM | 130 nM
CN1[C@@H]2c3[nH]c4ccccc4c3C[C@H]1[C@H](C#N)N1[C@@H](CNC(=O)c3cccs3)c3[nH]c4ccccc4c3C[C@@H]21 | 550 nM | 470 nM | 180 nM | 280 nM | 230 nM | 1330 nM
CN1[C@@H]2c3[nH]c4ccccc4c3C[C@H]1[C@H](C#N)N1[C@@H](CNC(=O)c3cccc4c3CCCC4)c3[nH]c4ccccc4c3C[C@@H]21 | 4210 nM | 4470 nM | 540 nM | 3540 nM | 810 nM | 3340 nM
CN1[C@@H]2c3[nH]c4ccccc4c3C[C@H]1[C@H](C#N)N1[C@@H](CNC(=O)c3ccc4ccccc4c3)c3[nH]c4ccccc4c3C[C@@H]21 | 420 nM | 4650 nM | 1210 nM | 1110 nM | 1030 nM | 4940 nM
CN1[C@@H]2c3[nH]c4ccccc4c3C[C@H]1[C@H](C#N)N1[C@@H](CNC(=O)c3cccc(C(F)(F)F)c3)c3[nH]c4ccccc4c3C[C@@H]21 | 630 nM | 110 nM | 340 nM | 870 nM | 210 nM | 140 nM
CN1[C@@H]2c3[nH]c4ccccc4c3C[C@H]1[C@H](C#N)N1[C@@H](CNC(=O)c3cc4ccccc4o3)c3[nH]c4ccccc4c3C[C@@H]21 | 330 nM | 320 nM | 280 nM | 210 nM | 230 nM | 850 nM
CCc1ccc(C(=O)NC[C@H]2c3[nH]c4ccccc4c3C[C@H]3[C@H]4c5[nH]c6ccccc6c5C[C@@H]([C@H](C#N)N23)N4C)cc1 | 100 nM | 170 nM | 570 nM | 660 nM | 670 nM | 3560 nM
CN1[C@@H]2c3[nH]c4ccccc4c3C[C@H]1[C@H](C#N)N1[C@@H](CNC(=O)c3cc4ccccc4[nH]3)c3[nH]c4ccccc4c3C[C@@H]21 | 880 nM | 9780 nM | 440 nM | 1690 nM | 7100 nM | 1220 nM
CN1[C@@H]2c3[nH]c4ccccc4c3C[C@H]1[C@H](C#N)N1[C@@H](CNC(=O)c3ccc4ccccc4n3)c3[nH]c4ccccc4c3C[C@@H]21 | 240 nM | 150 nM | 110 nM | 80 nM | 60 nM | 150 nM
CN1[C@@H]2c3[nH]c4ccccc4c3C[C@H]1[C@H](C#N)N1[C@@H](CNC(=O)c3ccccc3)c3[nH]c4ccccc4c3C[C@@H]21 | 430 nM | 9670 nM | 250 nM | 740 nM | 200 nM | 140 nM
CN1[C@@H]2c3[nH]c4ccccc4c3C[C@H]1[C@H](C#N)N1[C@@H](CNC(=O)/C=C/c3cccc(C(F)(F)F)c3)c3[nH]c4ccccc4c3C[C@@H]21 | 610 nM | 110 nM | 540 nM | 910 nM | > 10000 nM | 5060 nM
CN1[C@@H]2c3[nH]c4ccccc4c3C[C@H]1[C@H](C#N)N1[C@@H](CNC(=O)c3ccc(F)cc3)c3[nH]c4ccccc4c3C[C@@H]21 | 140 nM | 980 nM | 210 nM | 310 nM | 250 nM | 1370 nM
CN1[C@@H]2c3[nH]c4ccccc4c3C[C@H]1[C@H](C#N)N1[C@@H](CNC(=O)c3ccccn3)c3[nH]c4ccccc4c3C[C@@H]21 | 40 nM | 40 nM | 70 nM | 80 nM | 30 nM | 70 nM
CC(=O)NC[C@H]1c2[nH]c3ccccc3c2C[C@H]2[C@H]3c4[nH]c5ccccc5c4C[C@@H]([C@H](C#N)N12)N3C | 4340 nM | 5300 nM | 420 nM | 2200 nM | 630 nM | 1180 nM
COc1ccc(C(=O)NC[C@H]2c3[nH]c4ccccc4c3C[C@H]3[C@H]4c5[nH]c6ccccc6c5C[C@@H]([C@H](C#N)N23)N4C)cc1 | 430 nM | 600 nM | 310 nM | 320 nM | 320 nM | 840 nM
